Experimental data taken from ChEMBL document CHEMBL5614432, “NRF2 inhibitors: Recent progress, future design and therapeutic potential” (Eur J Med Chem, 2024).
Blank lines part the entries; values can stand above or below the compound they belong to.

Assays:
NRF2-MAFG = NRF2-MAFG (Homo sapiens, UniProt O15525+Q16236); test: Inhibition of NRF2/MAFG (unknown origin) heterodimerization using fluorescein-labeled ARE DNA duplex as substrate preincubated for 1 hr followed by substrate addition measured after 1 hr by FP assay; format: protein-complex assay
THP-1 = test: Cytotoxicity against human THP-1 cells incubated for 48 hrs by CCK8 assay; format: functional, cell-based; settings: THP-1, 48 h
cells = settings: Homo sapiens, Bel-7402, 48 h
Description: Cytotoxicity against human BEL-7402/ADM cells incubated for 48 hrs by MTT assay

[1] = molecular target: T1, Nuclear factor erythroid 2-related factor 2 (Homo sapiens, UniProt Q16236); test: Inhibition of NRF2 in human KYSE-70 cells; format: cell-based
T1 sequence (Q16236 whole entry): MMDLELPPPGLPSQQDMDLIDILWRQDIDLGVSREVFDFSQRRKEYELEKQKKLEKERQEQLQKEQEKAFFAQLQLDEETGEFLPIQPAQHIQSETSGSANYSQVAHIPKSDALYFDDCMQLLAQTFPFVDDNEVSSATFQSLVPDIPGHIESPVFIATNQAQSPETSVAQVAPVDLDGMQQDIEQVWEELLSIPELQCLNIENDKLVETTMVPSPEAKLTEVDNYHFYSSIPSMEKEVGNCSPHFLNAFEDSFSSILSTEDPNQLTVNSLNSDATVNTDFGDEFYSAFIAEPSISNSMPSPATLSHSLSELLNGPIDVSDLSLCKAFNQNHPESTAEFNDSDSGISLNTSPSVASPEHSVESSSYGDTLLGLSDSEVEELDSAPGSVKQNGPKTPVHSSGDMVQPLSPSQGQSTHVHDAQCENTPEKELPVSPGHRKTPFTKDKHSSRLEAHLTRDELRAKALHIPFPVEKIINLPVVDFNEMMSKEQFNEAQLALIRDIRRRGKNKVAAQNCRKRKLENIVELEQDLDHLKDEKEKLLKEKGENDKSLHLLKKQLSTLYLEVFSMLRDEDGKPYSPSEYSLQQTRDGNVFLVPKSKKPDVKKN

[2] = molecular target: T1, Nuclear factor erythroid 2-related factor 2; test: Inhibition of NRF2 in human A549 cells; format: cell-based
T98G = test: Inhibition of cell viability in human T98G cells incubated for 24 hrs by MTT assay; format: functional, cell-based
U-87 MG = test: Inhibition of cell viability in human U-87 MG cells incubated for 24 hrs by MTT assay; format: functional, cell-based, U-87MG ATCC
SK-OV-3 = test: Inhibition of cell growth of human SK-OV-3 cells incubated for 24 to 96 hrs with re-current replacement of media containing compound for every 48 hrs by CCK8 assay; format: functional, cell-based
A2780 = test: Inhibition of cell growth of human A2780 cells incubated for 24 to 96 hrs with re-current replacement of media containing compound for every 48 hrs by CCK8 assay; format: functional, cell-based
Caov-4 = test: Inhibition of cell growth of human Caov-4 cells incubated for 24 to 96 hrs with re-current replacement of media containing compound for every 48 hrs by CCK8 assay; format: functional, cell-based
[3] = Cytotoxicity against human Leukemic stem cells incubated for 72 hrs by MTT assay; format: functional, cell-based; settings: Leukemic stem cell
[4] = Cytotoxicity against human MCF7-DOX cells incubated for 24 hrs by MTT assay; format: functional, cell-based

NRF2-MAFG, sequence (O15525 whole entry, one chain of several): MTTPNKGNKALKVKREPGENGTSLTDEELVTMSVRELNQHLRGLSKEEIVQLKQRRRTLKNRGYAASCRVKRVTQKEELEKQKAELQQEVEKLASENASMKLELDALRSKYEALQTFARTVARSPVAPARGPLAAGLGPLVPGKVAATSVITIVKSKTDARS

IC50 (NRF2-MAFG): 1.9 µM
SMILES: Cc1ccccc1C(=O)N1CCc2cc(-c3nc(NC(=O)Cc4ccc5c(c4)OCO5)sc3C)ccc21

SMILES: CC(C)(C)c1ccc(Cn2nc(-c3ccc(Cl)cc3)cc2C(=O)NO)cc1
IC50 (THP-1): 5.33 µM

IC50 (cells): ~50 µM
SMILES: O=c1cc(-c2ccc(O)cc2)oc2cc(O)cc(O)c12 [APIGENIN]

IC50 (cells): ~30 µM
SMILES: O=c1cc(-c2ccccc2)oc2cc(O)cc(O)c12 [CHRYSIN]

SMILES: O=C(CC1NCCCC1O)Cn1cnc2cc(Br)c(Cl)cc2c1=O (stereo not drawn) [HALOFUGINONE]
IC50 [1]: 0.0223 µM
IC50 [2]: 0.0372 µM

SMILES: CC(C)c1cccc(=O)c(O)c1 [HINOKITIOL]
IC50 (T98G): 152 µM
IC50 (U-87 MG): 316 µM

IC50 (SK-OV-3): ~20 µM
IC50 (A2780): ~20 µM
SMILES: N#CC1(c2ccc(NC(=O)c3cccnc3NCc3ccncc3)cc2)CCCC1 [RIVOCERANIB]
IC50 (Caov-4): ~20 µM

SMILES: CC(C)[C@]12O[C@H]1[C@@H]1O[C@]13[C@]1(O[C@H]1C[C@H]1C4=C(CC[C@@]13C)C(=O)OC4)[C@@H]2O [TRIPTOLIDE]
IC50 [3]: 0.0205 µM

SMILES: COc1c(O)cc(O)c2c(=O)cc(-c3ccccc3)oc12 [WOGONIN]
IC50 [4]: ~150 µM
